#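 Assay format: 96-well plates, 48-hour exposure. TGI is the concentration that stops growth completely.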
# What was measured:
# Assay in all cases: NCI tumour cell line growth inhibition, 48 h
# [1] = test system: MDA-MB-435
# [2] = test system: NCI-H460 lung
# [3] = test system: PC-3 prostate
# [4] = test system: ACHN renal
# [5] = test system: HCC-2998 colon
# [6] = test system: NCI/ADR-RES ovarian
# [7] = test system: 786-0 renal
# [8] = test system: KM12 colon
# [9] = test system: M14 melanoma
# [10] = test system: CAKI-1 renal
# [11] = test system: SNB-19 CNS
# [12] = test system: TK-10 renal
# [13] = test system: MALME-3M melanoma
# [14] = test system: RPMI-8226 leukemia
# [15] = test system: SF-539 CNS
# [16] = test system: EKVX NSCLC
# [17] = test system: RXF 393 renal
# [18] = test system: SN12C renal
# [19] = test system: CCRF-CEM leukemia
# [20] = test system: HS 578T breast
# [21] = test system: DU-145 prostate
# [22] = test system: SK-MEL-5 melanoma
# [23] = test system: A549 NSCLC
# [24] = test system: HT29 colon
# [25] = test system: COLO 205 colon
# [26] = test system: OVCAR-5 ovarian
# [27] = test system: BT-549 breast
# [28] = test system: SW-620 colon
# [29] = test system: IGROV1 ovarian
# [30] = test system: UO-31 renal
# [31] = test system: OVCAR-3 ovarian
# [32] = test system: U251 CNS
# [33] = test system: UACC-62 melanoma
# [34] = test system: LOX IMVI melanoma
# [35] = test system: UACC-257 melanoma
# [36] = test system: HCT-116 colon
# [37] = test system: SNB-75 CNS
# [38] = test system: OVCAR-8 ovarian
# [39] = test system: SK-MEL-28 melanoma
# [40] = test system: MOLT-4 leukemia
# [41] = test system: A498 renal
# [42] = test system: HOP-92 NSCLC
# [43] = test system: SF-268 CNS
# [44] = test system: HOP-62 NSCLC
# [45] = test system: NCI-H226 lung
# [46] = test system: MDA-N
# [47] = test system: NCI-H522 lung
# [48] = test system: NCI-H23 lung
# [49] = test system: SF-295 CNS
# [50] = test system: MCF7 breast
# [51] = test system: OVCAR-4 ovarian
# [52] = test system: T-47D breast
# [53] = test system: HL-60(TB) leukemia
# [54] = test system: HCT-15 colon
compound,measurement,setting,value
COc1ccc(N=NC(=O)NC(CC(C)C)C(=O)NC(Cc2ccccc2)C(=O)O)cc1 (centres undefined),TGI,[1],> 100 µM
same,TGI,[2],> 100 µM
same,TGI,[3],> 100 µM
same,TGI,[4],> 100 µM
same,TGI,[5],> 100 µM
same,TGI,[6],> 100 µM
same,TGI,[7],> 100 µM
same,TGI,[8],> 100 µM
same,TGI,[9],> 100 µM
same,TGI,[10],> 100 µM
same,TGI,[11],> 100 µM
same,TGI,[12],> 100 µM
same,TGI,[13],> 100 µM
same,TGI,[14],> 100 µM
same,TGI,[15],3.22 µM
same,TGI,[16],> 100 µM
same,TGI,[17],> 100 µM
same,TGI,[18],> 100 µM
same,TGI,[19],> 100 µM
same,TGI,[20],> 100 µM
same,TGI,[21],> 100 µM
same,TGI,[22],25.6 µM
same,TGI,[23],> 100 µM
same,TGI,[24],> 100 µM
same,TGI,[25],5.36 µM
same,TGI,[26],> 100 µM
same,TGI,[27],> 100 µM
same,TGI,[28],> 100 µM
same,TGI,[29],> 100 µM
same,TGI,[30],> 100 µM
same,TGI,[31],> 100 µM
same,TGI,[32],> 100 µM
same,TGI,[33],> 100 µM
same,TGI,[34],46.9 µM
same,TGI,[35],45.2 µM
same,TGI,[36],> 100 µM
same,TGI,[37],> 100 µM
same,TGI,[38],> 100 µM
same,TGI,[39],> 100 µM
same,TGI,[40],> 100 µM
same,TGI,[41],> 100 µM
same,TGI,[42],97.5 µM
same,TGI,[43],> 100 µM
same,TGI,[44],> 100 µM
same,TGI,[45],> 100 µM
same,TGI,[46],> 100 µM
same,TGI,[47],> 100 µM
same,TGI,[48],> 100 µM
same,TGI,[49],> 100 µM
same,TGI,[50],> 100 µM
same,TGI,[51],> 100 µM
same,TGI,[52],> 100 µM
same,TGI,[53],8.18 µM
same,TGI,[54],> 100 µM

# Source: PubChem BioAssay (NCI)
